The record followed here is a melting point compilation (Tetko et al.; mined from patent text by program, amines drawn as free bases though some values may be those of a salt).

Structures are written as SMILES. Where only a bound is given, the exact number is not on record here.

The melting point is the temperature, or range, at which the solid turns liquid. `O=C(/C=C/c1ccccc1Sc1ccc(Cl)cc1Cl)NCCCCO` returned a melting point of 68 to 71 °C. Turning to `O=C(Nc1ccccc1)N1C[C@@H](P(c2ccccc2)c2ccccc2)[C@H](P(c2ccccc2)c2ccccc2)C1`, the melting point lay within 165 to 167 °C. Then `CC(c1oc2ccccc2c(=O)c1-c1cccc(F)c1)n1nc(-c2ccc(F)nc2)c2c(N)ncnc21` (stereo unspecified), with 203 to 206 °C. `NC(=O)Cc1c[nH]c2ccc(OCc3ccccc3)cc12` had a melting point of 137 to 140 °C.

Compound `O=C1OC(=O)c2nc3ccc(OC(F)F)cc3cc21` had a melting point of 158 °C. Regarding `CCn1cc(C(=O)O)c(=O)c2cc(F)c(N3CCN(S(=O)(=O)c4ccc(C)cc4)CC3)c(F)c21`, the melting point lay in the range of 236 to 237 °C. `Cc1cnc(C2CCCCC2)n2c1c(CCBr)c1ccccc12` displayed a melting point of 137 to 139 °C. As to `COC(=O)c1cccc(Nc2ccc(OC)cc2)c1`, the melting point came out at 120 °C.

For `O=C(O)c1ccc(-c2nnc(-c3ccc(C(F)(F)F)cc3)o2)c([N+](=O)[O-])c1`, the melting point fell in the range of 254 to 255 °C. Under `CCCN(CCC)c1nsc(NC(=O)NC)c1C#N` stands 179 to 180 °C; under `Cc1snc(O)c1C#N`, 205 °C. Under `Cc1ccc2c(c1)CCN1C2CC(=O)C2CCCCC21` (stereo unspecified) stands 101 to 121 °C. The compound `COc1ccc(S(=O)(=O)NCc2ccc(-n3c(-c4cccnc4N)nc4cc(Br)cnc43)cc2)cc1` came in with a melting point of 188 to 190 °C.

In turn, `CCc1cc(N)c([N+](=O)[O-])cc1CC` had a melting point of 63 to 65 °C. Then `COc1ccc(-c2cc(Cl)c3ccccc3n2)cc1C`, with 90 to 92 °C; and `CC(=O)Nc1ccc(C(=O)N2CCOCC2)cc1[N+](=O)[O-]`, with 128 to 132 °C. Then `O=c1nc(-c2ccccn2)sc2cc(F)ccc12`, with 250 °C; and `CC(C)=NOCCCn1cnc2c(N)nc3cccnc3c21`, with 120 to 121 °C; and `CCC(O)(c1ccccc1)c1ccccc1`, with 93 to 94 °C. Regarding `Cc1csc(C(=O)NN)c1N`, the melting point was in the range of 141 to 143 °C.

`C(=Cc1ccc(-c2cc3c(ccc4oc5ccccc5c43)o2)cc1)c1ccccc1` gave a melting point of 239 to 241 °C.

`COC(=O)[C@H](O)[C@@H](N)c1ccc(C(N)=O)cc1` displayed a melting point of 206 °C.

In turn, `COc1c(C(=O)O)n(Cc2ccccc2)c2ccccc12` showed a melting point of 115 to 117 °C. Under `CS(=O)(=O)Nc1cc(CC(=O)O)cc2c1NC(C(F)(F)F)CC2` (stereo unspecified) stands 189 to 191 °C; under `CCOC(=O)c1nc(C)n2c1CN=C(c1ccccn1)c1cc(Br)ccc1-2`, 240 to 243 °C; under `O=C(c1ccccc1)c1cnn2c(-c3cccnc3)ccnc12`, 202 to 203 °C. Then `COP(=O)(OC)C(C)(C)O`, with 75 to 77 °C; and `NC(=S)Nc1ccc(Br)cn1`, with 242 to 243 °C; and `CCCCCCCCc1ccc(-c2ccc(COc3ccc(OCC(C)OC(=O)OCCCC)cc3)cc2)cc1` (stereo unspecified), with 94 °C.

In turn, `COc1cc(Nc2nccc(-c3sc(NCCc4ccccc4)nc3C)n2)cc(OC)c1OC` displayed a melting point of 184 to 186 °C. The compound `NC(N)=Nc1nc(-c2cccc(CO)n2)cs1` came in with a melting point of 229 °C. `O=Cc1cn(-c2ccccc2)nc1OCc1ccccc1` gave a melting point of 153 to 154 °C. Then `C(=NC1CCCCC1)c1cccc(Oc2ccccc2)c1`, with 72 to 74 °C.

Consider `O=C1c2ccccc2CCc2cc(Br)ccc21`, for which the melting point was in the range of 94 to 96 °C. Under `CS(=O)(=O)c1ccc(Oc2ccc(Br)cc2)nc1` stands 125 to 126 °C; under `COc1c2ccccc2c(-c2c(-c3c4ccccc4c(OC)c4ccccc34)c2=O)c2ccccc12`, 265 to 270 °C; under `COc1ccc(S(=O)(=O)C2(C(=O)NO)CCN(Cc3ccc(-c4cccs4)cc3)CC2)cc1`, 166 °C. Under `O=c1[nH]nc(-c2ccc(-n3ccnc3)cc2)c2ncccc12` stands 376 to 378 °C. Take `N#Cc1c(-c2ccc(OCc3ccccc3)cc2)[nH]c2ccc(OCc3ccccc3)cc12`: the melting point lay within 64 to 66 °C. Under `Cn1c(COc2ccc(CC3SC(=O)NC3=O)cc2)nc2ccc(Oc3ccc(NC(=S)Nc4ccccc4)cc3)cc21` (stereo unspecified) stands 130 to 131 °C; under `c1ccc(OCCSCc2nnc(-c3ccc(OCc4cccnc4)cc3)o2)cc1`, 111 to 112 °C; under `Cc1c(C)c2c(c(C)c1NC(=O)CC(C)(C)C)C(c1ccc(CC(C)C)cc1)CO2` (stereo unspecified), 153 to 154 °C. Then `Cc1ccc(NS(=O)(=O)c2ccc(Br)cc2)c(F)c1`, with 111 °C; and `Cc1cc(C(=O)O)ccc1C(N)C(=O)O` (stereo unspecified), with greater than 250 °C; and `Cc1ccccc1-n1c(C=Cc2ccccn2)nc2ccsc2c1=O`, with 203 °C. Under `Cn1cc(Br)cc(Nc2ccncn2)c1=O` stands 217 to 219 °C; under `CN1C(=O)N(c2cc(Cl)cc(Cl)c2)C(=O)[C@]12CN(c1ccc(Cl)nn1)C[C@H]2c1ccc(C#N)cc1` (relative stereo), 125 °C; under `Fc1ccc2[nH]c(SCC(F)(F)F)nc2c1`, 136 to 139 °C.

`NS(=O)(=O)c1cnc(-c2cccs2)s1` returned a melting point of 134 to 136 °C.

`O=C(NCCCSc1ccncc1)c1cccs1` yielded a melting point of 112 to 113 °C. Under `CCCCCC(=S)SCCC` stands 55 to 56 °C; under `Nc1cc(-c2ccco2)ccc1Nc1cccc(-n2ccnc2)c1`, 191 to 194 °C.

`COC(=O)c1c(C(=O)OC)c(-c2ccc(OC)c(OC)c2)c2cc3c(cc2c1O)OCO3` came in with a melting point of 158 to 159 °C. With `CC(C)(C)OC(=O)Nc1ccc(-c2ccc(OCc3ccccc3)nc2)cc1N`, the melting point was 176 to 177 °C. Then `O=c1[nH]c2ccccc2n1C1CCN(CC(O)CSc2ccc(F)cc2)CC1` (stereo unspecified), with 155 to 157 °C; and `CC(C)C1C(=O)N(CSc2ccccc2)S(=O)(=O)N1C` (stereo unspecified), with 82 to 83 °C; and `Nc1nnc(N2CCN(CCOc3ccccc3)CC2)[nH]1`, with 131 to 133 °C. Under `O=C1CC2(CCCC2)CC(=O)N1CCCCN1CCN(C(c2ccc(F)cc2)c2ccc(F)cc2)CC1` stands 165 to 169 °C. Under `CC(C)CC=CC(C)C1CCC2C3=CC=C4CC(O)CCC4(C)C3CCC21C` (stereo unspecified) stands 120 to 122 °C; under `CN1CCCN(Cc2nc3ccccc3[nH]2)CC1`, 152 to 155 °C; under `Cc1cc(C)c2c(c1C)OCC2=O`, 92 to 93 °C.

As to `O=c1ccccn1C(c1ccccc1)c1ccccc1`, the melting point lay within 142 to 145 °C. Consider `S=C(NCCc1ccc(Cl)cc1)Nc1nc2ccccc2[nH]1`, for which the melting point lay within 173 to 182 °C. On to `O=C(O)c1ccccc1-c1nnc(-c2ccc(C(F)(F)F)cc2)s1`, for which the melting point was greater than 300 °C. Under `CCOC(=O)c1cc(F)c(C2CNCC2NC(=O)OC(C)(C)C)cc1F` (stereo unspecified) stands 98 to 100 °C. Then `O=Cc1c(-c2ccccc2)nn2ccccc12`, with 221 to 222 °C.
